In assay [1] the test system is epinephrine-induced increase in blood-pressure (anti-α effect). As to the kind of experiment: Antiadrenergic properties: anti-α effect (reduction of epinephrine-induced hypertension). The class given is in vivo. Details: key to anti-α effect: +: for a reduction < 50%; ++: for a reduction ≥ 50%; +++: for a reduction sub-total (almost complete reduction). Particulars: dog. As for the experimental part:
(§1) The object of this test is to determine the capacity of the compounds of the invention for reducing the increase in epinephrine-induced increase in blood-pressure (anti-α effect) and the isoprenaline-induced acceleration in heart rate (anti-β effect), in dogs previously anaesthatized with pentobarbital and atropinized. For each dog, the dose of epinephrine (between 3 and 10 μg/kg) which induced a reproducible increase in the blood-pressure of approximately 133×10^2 Pa and the dose of isoprenaline (1 to 2 μg/kg) which induced a reproducible increase in the heart rate of approximately 70 beats/min. were first determined. The dose of epinephrine and of isoprenaline, determined in this manner, were injected alternately every ten minutes and, after two successive reference responses had been obtained, an amount of the test compound was administered intravenously. The percentage reduction in the hypertension induced by the test compound compared with the reference hypertension previously obtained (approximately 100 mm Hg) was recorded. In both cases, the results of the reduction in blood-pressure or in the heart rate have been expressed as follows: […]

For assay [2], the system named is isoprenaline-induced acceleration in heart rate (anti-β effect). Briefly: Antiadrenergic properties: anti-β effect (reduction of isoprenaline-induced tachycardia). The class given is in vivo. Details: key to anti-β effect: +: for a reduction < 50%; ++: for a reduction ≥ 50%; +++: for a reduction sub-total (almost complete reduction). Particulars: dog; for inhibition in vivo at 10 mg/kg: 10 mg/kg i.v., known compounds; for inhibition in vivo at 0.5 mg/kg: 0.5 mg/kg i.v. As for the experimental part: as §1, with “the acceleration of the heart rate” for “the hypertension”, “reference tachycardia measured” for “reference hypertension”, “previously” for “previously obtained”, “(approximately 70 beats)” for “(approximately 100 mm Hg)”

The test system of another assay is isolated rat aorta. Briefly: Calcium inhibitory properties: contractile response to potassium-induced depolarization on isolated rat aorta. Particulars: Rattus norvegicus, 1 h, read-out: % of the maximum contractional effect; for activity at 1 µM: 10^-6 M; for activity at 0.1 µM: 10^-7 M; for activity at 0.01 µM: 10^-8 M. Also on record: species or system isolated organ, male Wistar rats. The essentials: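 Contraction is expressed as % of the pre-incubation maximum, measured after a 60 min compound exposure and a fresh K+ (100 mM KCl) depolarization. Tissue: aortic strips from male Wistar rats, 2 g tension, modified Krebs-bicarbonate, 37° C, CO2/O2 gassed.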

The mark [3] stands for this setting: Canis lupus familiaris, iv, 10 mg/kg i.v., known compounds.
The mark [4] stands for this setting: Canis lupus familiaris, iv, 0.5 mg/kg i.v.
[5] abbreviates: Canis lupus familiaris, iv, 5 mg/kg i.v.

Counter-ions that a name gives are not always drawn.

On to `COc1ccc(CCN(C)CC(O)COc2ccc(S(=O)(=O)c3c(C(C)C)cn4ccccc34)cc2)cc1OC` (racemic) [Ex. 50, hydrochloride], for which, in assay [1] (0.1 mg/kg i.v.), the anti-α effect entry is given as “+++”. Besides, the anti-β effect entry in assay [2] (0.1 mg/kg i.v.) is reported as “+++”.
As usually defined, the inhibition in vivo is the percentage by which the read-out fell short of the control. `CCCCc1oc2ccccc2c1S(=O)(=O)c1ccc(OCCN(CC)CC)cc1` [Compound A, reference compound] displayed an inhibition in vivo at 10 mg/kg in assay [1] (setting [3]) of under 50%. In assay [2] (Canis lupus familiaris, iv), this compound had an inhibition in vivo at 10 mg/kg of 0%. In the assay with isolated rat aorta, the activity at 1 µM came to 25%, the activity at 0.1 µM was found to be 60.3% and the activity at 0.01 µM was 84.3%.
Take `CCc1oc2ccccc2c1S(=O)(=O)c1ccc(OCCN(CC)CC)cc1` [Compound B, reference compound]: in assay [1] (10 mg/kg i.v., known compounds), the anti-α effect entry is on record as “+++”. In assay [2] (Canis lupus familiaris, iv), this compound gave an inhibition in vivo at 10 mg/kg of under 50%. Further, in the assay with isolated rat aorta, the activity at 1 µM was determined as 52.2% and the activity at 0.1 µM came out at 84.9%.
As to `CCCCc1cn2ccccc2c1C(=O)c1ccc(OCCCN(CCCC)CCCC)cc1` [Compound C, reference compound], the inhibition in vivo at 10 mg/kg in assay [1] (setting [3]) is under 50%. In assay [2] (Canis lupus familiaris, iv), this compound registered an inhibition in vivo at 10 mg/kg of 0%. Besides, in the assay with isolated rat aorta, the activity at 1 µM came to 25% and the activity at 0.1 µM worked out at 74.4%.
For `CCCCN(CCCC)CCCOc1c(C)cc(C(=O)c2c(CC)cn3ccccc23)cc1C` [Compound D, reference compound], in that order: under 50%, under 50%, 19.3% and 64.7%.
As for `CCCN(CCC)CCCOc1ccc(C(=O)c2c(CC)cn3ccccc23)cc1` [Compound E, reference compound], in assay [1] (setting [3]), the inhibition in vivo at 10 mg/kg is under 50%. For the same compound, in assay [2] (Canis lupus familiaris, iv), the inhibition in vivo at 10 mg/kg is at least 50%. Further, in the assay on isolated rat aorta, the activity at 1 µM came out at 37.9% and the activity at 0.1 µM was 89.1%.
On to `CCCCN(CCCC)CCCOc1ccc(C(=O)c2c(CC)cn3ccccc23)cc1` [Compound F, reference compound], for which, in assay [2] (Canis lupus familiaris, iv), the inhibition in vivo at 10 mg/kg was found to be 0%.
`CCCCN(CCCC)CCCOc1ccc(S(=O)(=O)c2c(C(C)C)cn3ccccc23)cc1` [Ex. 1, 2-isopropyl-1-{4-[3-(di-n-butylamino)propyloxy]benzenesulphonyl}indolizineoxalate] registered an inhibition in vivo at 0.5 mg/kg in assay [1] (setting [4]) of at least 50%. The compound further had an inhibition in vivo at 0.5 mg/kg in assay [2] (Canis lupus familiaris, iv) of at least 50%. In addition, in the assay on isolated rat aorta, the activity at 1 µM came to 2%, the activity at 0.1 µM was 18.9% and the activity at 0.01 µM amounted to 61%.
Regarding `CCc1cn2ccccc2c1S(=O)(=O)c1ccc(OCCCN2CCCCC2)cc1.Cl` [Ex. 2, 2-ethyl-1-[4-(3-piperidinopropyloxy)benzenesulphonyl]indolizine hydrochloride], the anti-α effect result in assay [1] (5 mg/kg i.v.) is “+++”. In assay [2] (setting [5]), this compound displayed an inhibition in vivo at 5 mg/kg of at least 50%. Also, in the assay on isolated rat aorta, the activity at 1 µM was 22.6% and the activity at 0.1 µM stood at 79.8%.
For the compound `CCCCN(CCCC)CCCOc1ccc(S(=O)(=O)c2c(CC)cn3ccccc23)cc1` [Ex. 8, 2-Ethyl-1-{4-[3-(di-n-butylamino)propyloxy]benzenesulphonyl}indolizine hydrochloride], the inhibition in vivo at 0.5 mg/kg in assay [1] (setting [4]) was at least 50%; in assay [2] (Canis lupus familiaris, iv), under 50%. Further, the activity at 0.1 µM with isolated rat aorta worked out at 30.9%.
For the compound `CCCCc1cn2ccccc2c1S(=O)(=O)c1ccc(OCCCN(CCC)CCC)cc1.O=C(O)C(=O)O` [Ex. 12, 2-n-Butyl-1-{4-[3-(di-n-propylamino)propyloxy]benzenesulphonyl}indolizine oxalate], the inhibition in vivo at 5 mg/kg in assay [1] (setting [5]) was at least 50%. Further, the anti-β effect result in assay [2] (5 mg/kg i.v.) is reported as “+++”. Moreover, the activity at 1 µM in the assay on isolated rat aorta is 36.3%.
As to `CC(C)c1cn2ccccc2c1S(=O)(=O)c1ccc(OCCCN(C)C)cc1` [Ex. 14, 2-Isopropyl-1-{4-[3-(dimethylamino)propyloxy]benzenesulphonyl}indolizine], the anti-α effect entry in assay [1] (2.5 mg/kg i.v.) was “+++”. Also, the anti-β effect entry in assay [2] (2.5 mg/kg i.v.) is “+++”. Also, the activity at 1 µM in the assay with isolated rat aorta stood at 32.6%.
In the case of `CCN(CC)CCCOc1ccc(S(=O)(=O)c2c(C(C)C)cn3ccccc23)cc1` [Ex. 15, 2-Isopropyl-1-{4-[3-(diethylamino)propyloxy]benzenesulphonyl}indolizine], the anti-α effect result in assay [1] (2.5 mg/kg i.v.) is on record as “+++”. The anti-β effect result in assay [2] (2.5 mg/kg i.v.) is listed as “+++”. Besides, in the assay on isolated rat aorta, the activity at 1 µM is 18.4% and the activity at 0.1 µM worked out at 71.2%.
On to `CCCN(CCC)CCCOc1ccc(S(=O)(=O)c2c(C(C)C)cn3ccccc23)cc1` [Ex. 17, 2-Isopropyl-1-{4-[3-(di-n-propylamino)propyloxy]benzenesulphonyl}indolizineoxalate], for which the anti-α effect result in assay [1] (1.3 mg/kg i.v.) is listed as “+++”. The same compound returned an inhibition in vivo at 1.3 mg/kg in assay [2] (Canis lupus familiaris, iv, 1.3 mg/kg i.v.) of at least 50%. In addition, in the assay with isolated rat aorta, the activity at 1 µM was 7.4% and the activity at 0.1 µM was 50.4%.
For `CCCCN(C)CCCOc1ccc(S(=O)(=O)c2c(CC)cn3ccccc23)cc1.O=C(O)C(=O)O` [Ex. 20, 2-Ethyl-1-{4-[3-(N-methyl-N-butylamino)propyloxy]benzenesulphonyl}indolizine oxalate], in assay [1] (5 mg/kg i.v.), the anti-α effect result was “+++”. Moreover, the anti-β effect entry in assay [2] (5 mg/kg i.v.) is “+++”. Besides, in the assay with isolated rat aorta, the activity at 1 µM worked out at 6.8% and the activity at 0.1 µM is 60%.
On to `CCCCNCCCOc1ccc(S(=O)(=O)c2c(CC)cn3ccccc23)cc1.O=C(O)C(=O)O` [Ex. 21, 2-Ethyl-1-{4-[3-(n-butylamino)propyloxy]benzenesulphonyl}indolizine oxalate], for which the anti-α effect entry in assay [1] (5 mg/kg i.v.) is recorded as “+++”. In assay [2] (5 mg/kg i.v.), the anti-β effect entry is on record as “+++”. Also, in the assay on isolated rat aorta, the activity at 1 µM was found to be 8.3% and the activity at 0.1 µM came out at 74.7%.
Consider `CCCCN(CCCC)CCCCOc1ccc(S(=O)(=O)c2c(CC)cn3ccccc23)cc1` [Ex. 23, 2-Ethyl-1-{4-[4-(di-n-butylamino)butyloxy]benzenesulphonyl}indolizine hemioxalate], for which the anti-α effect entry in assay [1] (1 mg/kg i.v.) is “+++”. The anti-β effect result in assay [2] (1 mg/kg i.v.) was “+++”. For the same compound, in the assay with isolated rat aorta, the activity at 0.1 µM was determined as 24.1% and the activity at 0.01 µM was found to be 77.8%.
Take `CCCCCN(CCCCC)CCCOc1ccc(S(=O)(=O)c2c(CC)cn3ccccc23)cc1.Cl` [Ex. 26, 2-Ethyl-1-{4-[3-(di-n-pentylamino)propyloxy}benzenesulphonyl}indolizine hydrochloride]: the anti-α effect entry in assay [1] (0.5 mg/kg i.v.) is listed as “+++”. This compound yielded an inhibition in vivo at 0.5 mg/kg in assay [2] (Canis lupus familiaris, iv) of at least 50%. Moreover, in the assay on isolated rat aorta, the activity at 0.1 µM came out at 42.9% and the activity at 0.01 µM turned out to be 82.9%.
Take `CCc1cn2ccccc2c1S(=O)(=O)c1ccc(OCCCNCCc2ccc(OC)c(OC)c2)cc1` [Ex. 27, 2-Ethyl-1-{4-}3-(3,4-dimethoxy-β-phenethylamino)propyloxy]benzenesulphonyl}indolizine oxalate]: the anti-α effect entry in assay [1] (1 mg/kg i.v.) is “+++”. In addition, the inhibition in vivo at 1 mg/kg in assay [2] (Canis lupus familiaris, iv, 1 mg/kg i.v.) is at least 50%. For the same compound, in the assay on isolated rat aorta, the activity at 0.1 µM worked out at 7.7% and the activity at 0.01 µM amounted to 58.9%. Moreover, the activity at 0.001 µM with isolated rat aorta (10^-9 M) turned out to be 81.6%.
Take `CCCCc1cn2ccccc2c1S(=O)(=O)c1ccc(OCCCNC(C)(C)C)cc1.O=C(O)C(=O)O` [Ex. 29, 2-n-Butyl-1-{4-[3-(tert-butylamino)propyloxy]benzenesulphonyl}indolizine oxalate]: the anti-α effect entry in assay [1] (5 mg/kg i.v.) is given as “+++”. Besides, in assay [2] (setting [5]), the inhibition in vivo at 5 mg/kg was at least 50%. In the assay with isolated rat aorta, the activity at 1 µM stood at 30.7%.
Consider `COc1cc(CCN(C)CCCOc2ccc(S(=O)(=O)c3c(C(C)C)c4ccccc4n3C)cc2)cc(OC)c1` [Ex. 146, 1-methyl-3-isopropyl-2-[4-{3-[N-methyl-N-(3,5-dimethoxy-β-phenethyl)amino]propyloxy}benzenesulphonyl]indole acid oxalate], for which the anti-α effect result in assay [1] (0.07 mg/kg i.v.) is “+++”. In addition, the inhibition in vivo at 0.07 mg/kg in assay [2] (Canis lupus familiaris, iv, 0.07 mg/kg i.v.) is at least 50%.
